These results are taken from PubChem BioAssay AID588355 (Sanford-Burnham Center for Chemical Genomics, 2011).

The test deals with Hexokinase HKDC1 (Homo sapiens) (UniProt Q2TB90). The test can be described thus: analog inhibition of human HKDC1 activity – biochemical, set 2, SAR follow-up (AID 588355). To be noted: recombinant HKDC1, G6PDH/diaphorase/resazurin coupled fluorescence. For orientation: The colour change of resazurin is a common sign of viable cells or microbes.

Each structure is given as a SMILES string. Activity calls are given as the source filed them.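 The calls were made as follows: active = IC50 below 20 µM in the confirmatory dose-response test; inactive = the rest.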

Hexokinase HKDC1 (Homo sapiens), sequence (Q2TB90 whole entry, looked up): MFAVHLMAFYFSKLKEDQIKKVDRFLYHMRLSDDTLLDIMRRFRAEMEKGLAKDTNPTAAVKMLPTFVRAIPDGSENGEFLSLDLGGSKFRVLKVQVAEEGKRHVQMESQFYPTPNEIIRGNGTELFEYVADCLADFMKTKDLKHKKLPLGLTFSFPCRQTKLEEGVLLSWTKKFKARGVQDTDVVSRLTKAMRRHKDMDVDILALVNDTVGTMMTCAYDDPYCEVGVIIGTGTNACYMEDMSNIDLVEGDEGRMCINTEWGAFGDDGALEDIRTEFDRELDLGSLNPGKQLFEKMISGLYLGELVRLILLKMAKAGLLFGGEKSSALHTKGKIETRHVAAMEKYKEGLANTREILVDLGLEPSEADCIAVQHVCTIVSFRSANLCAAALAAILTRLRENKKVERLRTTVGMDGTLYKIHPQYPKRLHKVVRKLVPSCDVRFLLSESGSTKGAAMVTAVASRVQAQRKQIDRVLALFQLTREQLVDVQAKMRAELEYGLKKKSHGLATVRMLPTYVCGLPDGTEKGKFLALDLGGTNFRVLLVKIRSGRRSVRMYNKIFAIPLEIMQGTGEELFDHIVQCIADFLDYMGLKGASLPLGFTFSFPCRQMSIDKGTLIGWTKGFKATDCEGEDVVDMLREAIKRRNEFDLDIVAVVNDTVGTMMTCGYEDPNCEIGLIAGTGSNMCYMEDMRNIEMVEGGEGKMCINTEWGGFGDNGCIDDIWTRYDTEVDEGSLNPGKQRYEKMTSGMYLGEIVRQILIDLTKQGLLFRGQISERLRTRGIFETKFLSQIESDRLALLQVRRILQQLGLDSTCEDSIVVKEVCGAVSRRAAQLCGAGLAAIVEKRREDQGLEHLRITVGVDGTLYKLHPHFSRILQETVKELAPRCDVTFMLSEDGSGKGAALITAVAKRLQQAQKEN

Turning to `COc1cc2c(cc1OC)-c1cc(N3CCc4ccccc4C3)nc(=O)n1CC2`, the IC50 entry was “inactive”.
